The source of these data is PMC6470533, “Structure–Activity Study, Characterization, and Mechanism of Action of an Antimicrobial Peptoid D2 and Its D- and L-Peptide Analogues” (Molecules, 2019).

Data set [1] deals with red blood cell (RBC). The conditions noted are these: 0.5% RBC suspension in PBS, 1 h, 37 °C, read at 414 nm, normalized to mellitin and PBS, triplicates.
Description: Briefly, 75 µL of peptide in PBS was mixed with 75 µL of a 0.5% red blood cell (RBC) suspension in PBS, and incubated for 1 h at 37 °C. The hemoglobin release was then measured at 414 nm and normalized, using mellitin as positive control and PBS as negative control. Experiments were done in triplicates.
The subject of data set [2] is S. pseudintermedius isolates from canine infections. It counts as cell-based, Staphylococcus pseudintermedius. The conditions noted are these: 50 isolates from canine infections.
Data set [3] deals with P. aeruginosa isolates from canine infections. It counts as cell-based, Pseudomonas aeruginosa. How it is done: (§1) To explore the antimicrobial activity of the library of peptides and peptidomimetics, they were tested against Acinetobacter baumannii, Corynebacterium auriscanis, Escherichia coli, Enterococcus faecalis, Enterococcus faecium, Klebsiella pneumonia, Proteus mirabilis, and Pseudomonas aeruginosa. Bacteria grown on agar plates for 18 h at 37 °C were diluted to ~1 × 10^8 CFU/mL in Mueller–Hinton broth (MHB). Two-fold serial dilutions of peptides and peptidomimetics in MHB II were inoculated with bacteria to achieve a final concentration of 5 × 10^5 CFU/mL in polypropylene 96 U-well microtiter plates (Almeco, Esbjerg, Denmark), followed by incubation at 37 °C in ambient air for 18 h. The MIC values were determined as the lowest concentration showing no visible bacterial growth. Experiments were performed twice (in technical triplicates) on two different days.

For data set [4] the following is noted: cited from earlier work. The text has this: We have previously described a promising antimicrobial peptoid, D2, which is active against MRSP and P. aeruginosa, resistant to plasma proteases and hepatic clearance in vitro, and is suitable for topical administration to treat superficial pyoderma. In the present study, we investigated the structural features responsible for antimicrobial activity of D2 by (a) performing Gly-scan to analyze the residues crucial for activity; (b) investigating the effects of single substitution in order to increase activity; (c) exploring the effect of the peptoid backbone by exchanging L- and D- amin ...

In data set [5] the test system is MRSP ST71 strain E104. Briefly: Growth curve analysis (BioScreen). Format: cell-based, Staphylococcus pseudintermedius. The note with it: at the MIC, MRSP E104, OD600, 6 h, 37 °C. How it is done: First, we performed growth curve analysis using the well-characterized MRSP ST71 strain E104, which is resistant to a number of antibiotics. […] A well-characterized antimicrobial peptide, nisin, was used as control. […] Increased concentrations of nisin inhibited proportionally the growth of E104, both at sub-MIC and MIC concentrations.
The effect of D2 or analogues or nisin on the growth of MRSP strain E104 was evaluated using BioScreen (Oy Growth Curves Ab LTd, Helsinki, Finland). Freshly grown culture of E104 was diluted to OD 0.2 at 600 nm, supplemented with increased concentration of antimicrobials and distributed in a 100 well honeycomb micro-plate with volume 100 μL. The plate was incubated for 6 h at 37 °C with continuous shaking. The OD600 of each micro-culture was measured and recorded every 15 min after a 5 s pause of shaking in automatic mode. Recorded OD was plotted against time to prepare the growth curves. Experiment was performed twice and one representative result was presented.

In data set [6] the test system is membrane proton motive force of E104 cells. Briefly: DiSC3(5) fluorescence, membrane depolarization. It counts as cell-based, Staphylococcus pseudintermedius. The conditions noted are these: 0.5× MIC, n = 2. The text has this:
In this study, the DiSC3(5) probe was used to assess the effect of D2 and its structural analogues D2L, D2D, and D2R on cytoplasmic membrane depolarization. DiSC3(5) is a cationic carbocyanine dye, which accumulates on negatively charged membrane, translocates into lipid membrane with a distribution dependent on plasma and mitochondrial membrane potential. Altered emission profile of DiSC3(5) measured via fluorescence spectroscopy indicates membrane depolarization caused by proton motive force dissipation, ATP production and/or pore formation. The increment of DiSC3(5) fluorescence of labeled cells resulting from its leakage upon addition of antimicrobial agents is usually measured over time. The protonophore carbonyl cyanide metachlorophenyl hydrazone (CCCP) is used as positive control, which rapidly dissipates PMF increasing proton permeability, alters both membrane proton gradient and transmembrane electric potential and decreases cellular ATP content. Based on the MIC and growth analysis results, sub-lethal concentrations of D2 and selected analogues were chosen to perform DiSC3(5) fluorescence and macromolecule biosynthesis studies.
Freshly grown E104 cells with OD 0.2 at 600 nm were labeled with 1 µM 3,3-dipropylthiadicarbocyanine iodide [DiSC3(5)] (Sigma-Aldrich, Søborg, Denmark) in MHB. The fluorescence spectra of fluorophore-labeled cells were plotted using the LS-50B luminescence spectrometer (PerkinElmer, Waltham, MA, USA) at excitation/emission wavelengths 546 nm/573 nm using time drive application of FLWINLAB software. After reading initial stable emission spectra of DiSC3(5), labeled cells were exposed with D2 or analogues or nisin or protonophore CCCP by directly injecting the concentrated solution of agent to the cuvette, and the change of fluorescence over time was recorded until emission spectra reached to stability. The increment of DiSC3(5) fluorescence upon addition of antimicrobials or CCCP (FUafter-exposure – FUbefore-exposure) was calculated and plotted in addition to raw fluorescence spectra. Experiment was performed twice and average fluorescence change was plotted with standard deviation.

Data set [7] concerns other selected dog pathogens. As to the kind of experiment: MIC against other selected dog pathogens. The note with it: summary of Table 4, except for P. mirabilis. Format: cell-based.
Description: We screened the antimicrobial activity of D2 and the analogue D2D against a number of canine pathogens (Table 4). These included Acinetobacter baumannii, Escherichia coli, Enterococcus faecalis, and Klebsiella pneumoniae isolated from wounds, Corynebacterium auriscanis associated with canine otitis externa, the nosocomial pathogen Enterococcus faecium, the endocartitis-causing Streptococcus canis, and Proteus mirabilis
as §1

Non-standard residues stand in square brackets, D forms with d. Residues, ends and D or L forms follow the SMILES beside them. N(1-naphthylmethyl)Gly = O=C(O)CNCc1cccc2ccccc12; d1Nal = N[C@H](Cc1cccc2ccccc12)C(=O)O; N(4-MeBn)Gly = Cc1ccc(CNCC(=O)O)cc1; dNle = CCCC[C@@H](N)C(=O)O; NBuGly = CCCCNCC(=O)O; Nlys = NCCCCNCC(=O)O

As to `CCCCN(CC(N)=O)C(=O)CN(CCCCN)C(=O)CN(Cc1cccc2ccccc12)C(=O)CN(CCCCN)C(=O)CN(Cc1ccc(C)cc1)C(=O)CN(Cc1cccc2ccccc12)C(=O)CN(CCCCN)C(=O)CNCCCCN` [D2] (H-[Nlys][Nlys][N(1-naphthylmethyl)Gly][N(4-MeBn)Gly][Nlys][N(1-naphthylmethyl)Gly][Nlys][NBuGly]-NH2), the “HA, percentage of hemolysis at 150 µM” value in data set [1] came to 24%. Also, the “MIC range, panel of 50 S. pseudintermedius isolates” value in data set [2] lay within 1.56 to 3.12 µM. In addition, the “MIC range, panel of 50 P. aeruginosa isolates” value in data set [3] (50 isolates from canine infections) was in the range of 3.12 to 12.5 µM. In data set [4], the “resistance to hepatic clearance” value is reported as “resistant” and the “resistance to plasma proteases” value is on record as “resistant”. Also, in data set [5], the “growth curve, change of cell optical density over time” value is “cell lysis”.

`CCCC[C@@H](NC(=O)[C@@H](CCCCN)NC(=O)[C@@H](Cc1cccc2ccccc12)NC(=O)[C@@H](CCCCN)NC(=O)[C@@H](Cc1ccccc1)NC(=O)[C@@H](Cc1cccc2ccccc12)NC(=O)[C@@H](CCCCN)NC(=O)[C@H](N)CCCCN)C(N)=O` [D2D] (H-[dK][dK][d1Nal][dF][dK][d1Nal][dK][dNle]-NH2): the “HA, percentage of hemolysis at 150 µM” value in data set [1] turned out to be 35%. The “effect on PMF (membrane depolarization, DiSC3(5) fluorescence)” value in data set [6] is listed as “lowest activity on PMF”. For the same compound, the “MICs against canine P. aeruginosa isolates” value in data set [3] (isolates from canine infections, 18 h) is 4 µg/mL. Also, in data set [7], the “MIC range against other selected dog pathogens” value is 2 to 16 µg/mL. Also, in data set [5], the “growth curve, change of cell optical density over time” value is “cell lysis”.
